{"source": "paper PMC12689286", "about": "“Enhanced therapeutics of cabazitaxel via polycarboxylate conjugation: improved solubility, safety, and antitumor efficacy” (Frontiers in Immunology, 2025)", "key": {"SK-OV-3": {"tested_on": "SK-OV-3", "test": "MTS cytotoxicity, SK-OV-3", "assay_type": "cell-based", "conditions": "Homo sapiens; SK-OV-3, MTS", "protocol": "(§1) Human cancer cell lines were cultured in basic medium (10% fetal bovine serum (FBS)+1% double antibody solution) (Biological Industries) at 37°C in a 5% CO2 incubator. Effects of CTXs on cell proliferation and viability were measured by an MTS (Promega Corporation) assay. Absorbance values at 490 nm were measured using a microplate reader (Thermo Scientific, Varioskan Flash) ([22])."}, "L-02": {"tested_on": "L-02", "test": "MTS cytotoxicity, L-02 (non-tumor)", "assay_type": "cell-based", "conditions": "Homo sapiens, L02, L-02 non-tumor cell line", "protocol": "as §1"}, "HCT 116": {"tested_on": "HCT 116", "test": "MTS cytotoxicity, HCT 116", "assay_type": "cell-based", "conditions": "Homo sapiens; HCT 116, MTS", "protocol": "as §1"}, "MCF-7 xenografts": {"tested_on": "MCF-7 xenografts", "test": "MCF-7 breast cancer xenograft, tumor volume", "assay_type": "in vivo, BALB/c nude mice", "conditions": "MCF-7 xenograft, 9.6 μmol/kg", "protocol": "All animal experiments were conducted in accordance with protocols approved by the Institutional Animal Care and Use Committee of Peking Union Medical College. Male BALB/c nude mice (6–8 weeks old) and female KM mice (6–8 weeks old) were purchased from Charles River Laboratories (Beijing, China) and maintained under specific pathogen-free conditions.\nMCF-7 Breast Cancer Model: Female BALB/c nude mice bearing MCF-7 xenografts (2×10^6 cells/mouse) were randomized into treatment groups as described above, with an adjusted dose of 9.6 μmol/kg for all CTX formulations."}, "H358": {"tested_on": "H358", "test": "MTS cytotoxicity, H358", "assay_type": "cell-based", "conditions": "Homo sapiens, NCI-H358", "protocol": "as §1"}, "3T3": {"tested_on": "3T3", "test": "MTS cytotoxicity, 3T3 (non-tumor)", "assay_type": "cell-based", "conditions": "Mus musculus, NIH3T3, 3T3 non-tumor cell line"}, "[1]": {"test": "Plasma pharmacokinetics (non-compartmental)", "conditions": "plasma", "protocol": "(§2) Male and female SD rats (200–220 g) received intravenous injections of CTX or CTX-DTPA (6 μmol/kg). CTX was dissolved in 2.5% Tween 80/2.5% EtOH/saline, while CTX-DTPA used saline alone. Blood samples were collected at 5 min to 24 h post-dose. Tissues (heart, liver, spleen, lung, kidney, thymus) and excreta were collected at 15 min, 2 h, 4 h, and 12 h. Plasma and tissue samples were processed by liquid-liquid extraction with n-butanol and analyzed via LC-MS/MS (Agilent Poroshell 120 EC-C18 column; 0.05% formic acid/acetonitrile gradient). Pharmacokinetic parameters were calculated using DAS 2.0 via non-compartmental analysis."}, "Hemolysis test": {"test": "Hemolysis test", "assay_type": "cell-based, SD rats", "conditions": "SD, rat, rat red blood cells, 2% (v/v) suspension, 37 °C, 1.5 h, read-out: hemolysis rate", "protocol": "The hemolytic potential of CTX formulations was evaluated using rat red blood cells (RBCs). Briefly, whole blood was collected from the abdominal aorta of anesthetized SD rats into ACD anticoagulant (blood:ACD = 1:4, v/v). The blood was diluted with normal saline (4:5, v/v) and centrifuged at 450 g for 10 min. The RBC pellet was washed three times with normal saline until the supernatant was clear. The washed RBCs were then resuspended in normal saline to prepare a 2% (v/v) suspension.\nFor the assay, 500 μL of the 2% RBC suspension was mixed with an equal volume of serially diluted drugs or controls in 1.5 mL tubes. The controls included: Negative control (0% hemolysis): normal saline. Positive control (100% hemolysis): distilled water. Solvent control: the vehicle for unmodified CTX (2.5% Tween 80 + 2.5% anhydrous ethanol + 95% normal saline). The mixtures were incubated at 37 °C for 1.5 h and then centrifuged at 450 g for 5 min. Subsequently, 150 μL of the supernatant from each tube was transferred to a 96-well plate, and the absorbance at 545 nm (OD545) was measured using a microplate reader. The percentage of hemolysis was calculated using the following formula: Hemolysis (%) = [(ODsample - ODnegative control)/(ODpositive control - ODnegative control)] × 100."}, "H520": {"tested_on": "H520", "test": "MTS cytotoxicity, H520", "assay_type": "cell-based", "conditions": "Homo sapiens, NCI-H520", "protocol": "as §1"}, "Fadu": {"tested_on": "Fadu", "test": "MTS cytotoxicity, Fadu", "assay_type": "cell-based", "conditions": "Homo sapiens", "protocol": "as §1"}, "Excretion (urine, feces)": {"test": "Excretion (urine, feces)", "assay_type": "in vivo", "conditions": "SD rats, 6 μmol/kg iv, in 24 h", "description": "Male and female SD rats (200–220 g) received intravenous injections of CTX or CTX-DTPA (6 μmol/kg). […] Blood samples were collected at 5 min to 24 h post-dose. Tissues (heart, liver, spleen, lung, kidney, thymus) and excreta were collected at 15 min, 2 h, 4 h, and 12 h. Plasma and tissue samples were processed by liquid-liquid extraction with n-butanol and analyzed via LC-MS/MS (Agilent Poroshell 120 EC-C18 column; 0.05% formic acid/acetonitrile gradient). Pharmacokinetic parameters were calculated using DAS 2.0 via non-compartmental analysis."}, "Tissue distribution": {"test": "Tissue distribution", "conditions": "both, SD, rat, iv, 6 μmol/kg", "protocol": "as §2"}, "DU145 cells": {"tested_on": "DU145 cells", "test": "Cell cycle arrest (PI, flow cytometry)", "assay_type": "cell-based, human", "conditions": "24 h", "protocol": "Cells were incubated with drugs for 24 h. Fixed cells were incubated with RNase A and stained with propidium iodide (PI). DNA content was determined in a flow cytometer (BD FACS CaliburTM Flow Cytometer, USA) ([23])."}, "Bel-7402": {"tested_on": "Bel-7402", "test": "MTS cytotoxicity, Bel-7402", "assay_type": "cell-based", "conditions": "Homo sapiens; Bel-7402, MTS", "protocol": "as §1"}, "H460": {"tested_on": "H460", "test": "MTS cytotoxicity, H460", "assay_type": "cell-based", "conditions": "Homo sapiens, NCI-H460", "protocol": "as §1"}, "PC-3": {"tested_on": "PC-3", "test": "MTS cytotoxicity, PC-3", "assay_type": "cell-based", "conditions": "Homo sapiens; PC-3, MTS", "protocol": "as §1"}, "MCF-7": {"tested_on": "MCF-7", "test": "MTS cytotoxicity, MCF-7", "assay_type": "cell-based", "conditions": "Homo sapiens, MCF7; MCF-7, MTS", "protocol": "as §1"}, "LN229": {"tested_on": "LN229", "test": "MTS cytotoxicity, LN229", "assay_type": "cell-based", "conditions": "Homo sapiens, LN-229", "protocol": "as §1"}, "DU145": {"tested_on": "DU145", "test": "MTS cytotoxicity, DU145", "assay_type": "cell-based", "conditions": "Homo sapiens, DU-145", "protocol": "as §1"}, "[2]": {"conditions": "SD rats, 6 μmol/kg iv, dosed compound itself"}}, "data": [{"smiles": "CO[C@H]1C(=O)[C@]2(C)[C@@H](OC)C[C@H]3OC[C@@]3(OC(C)=O)[C@H]2[C@H](OC(=O)c2ccccc2)[C@]2(O)C[C@H](OC(=O)[C@H](O)[C@@H](NC(=O)OC(C)(C)C)c3ccccc3)C(C)=C1C2(C)C", "note": "[CTX, Cabazitaxel]", "values": [{"measurement": "IC50", "setting": "SK-OV-3", "value": "4.4 ± 0.9", "unit": "nM"}, {"measurement": "IC50", "setting": "L-02", "value": "7.8 ± 1.5", "unit": "nM"}, {"measurement": "IC50", "setting": "HCT 116", "value": "2.2 ± 1.1", "unit": "nM"}, {"measurement": "tumor volume at study endpoint", "setting": "MCF-7 xenografts", "value": "56 ± 12", "unit": "mm³"}, {"measurement": "IC50", "setting": "H358", "value": "1.2 ± 0.6", "unit": "nM"}, {"measurement": "IC50", "setting": "3T3", "value": "8.7 ± 3.2", "unit": "nM"}, {"measurement": "MRT0-t", "setting": "[1]; [2]", "value": "0.67 ± 0.09", "unit": "H"}, {"measurement": "t1/2", "setting": "[1]; [2]", "value": "1.27 ± 0.09", "unit": "H"}, {"measurement": "AUC(0-t)", "setting": "[1]; both, SD, rat, iv, 6 umol/kg", "value": "1680 ± 194", "unit": "ng·h/mL"}, {"measurement": "Cmax", "setting": "[1]; both, SD, rat, iv, 6 umol/kg", "value": "2930 ± 990", "unit": "ng/mL"}, {"measurement": "Vd", "setting": "[1]; both, SD, rat, iv, 6 umol/kg", "value": "5.53 ± 0.81", "unit": "L/kg"}, {"measurement": "clearance", "setting": "[1]; both, SD, rat, iv, 6 umol/kg", "value": 50.2, "unit": "mL/min/kg"}, {"measurement": "hemolysis at 1.5 h, 4.7 nmol/mL", "setting": "Hemolysis test; 4.7 nmol/mL", "value": "11 ± 3.2", "unit": "%"}, {"measurement": "hemolysis at 1.5 h, 75 nmol/mL", "setting": "Hemolysis test; 75 nmol/mL", "value": "73.4 ± 5.8", "unit": "%"}, {"measurement": "IC50", "setting": "H520", "value": "1.5 ± 0.7", "unit": "nM"}, {"measurement": "IC50", "setting": "Fadu", "value": "1.6 ± 0.4", "unit": "nM"}, {"measurement": "total excretion of administered dose", "setting": "Excretion (urine, feces)", "value": "< 1 % of dose"}, {"measurement": "concentration at 15 min", "setting": "Tissue distribution; heart", "value": "43.2 ± 12.9", "unit": "ng/g"}, {"measurement": "concentration at 2 h", "setting": "Tissue distribution; heart", "value": "24.6 ± 2.33", "unit": "ng/g"}, {"measurement": "concentration at 4 h", "setting": "Tissue distribution; heart", "value": "16 ± 1.91", "unit": "ng/g"}, {"measurement": "concentration at 12 h", "setting": "Tissue distribution; heart", "value": "12.6 ± 2.69", "unit": "ng/g"}, {"measurement": "concentration at 15 min", "setting": "Tissue distribution; kidney", "value": "550 ± 12", "unit": "ng/g"}, {"measurement": "concentration at 2 h", "setting": "Tissue distribution; kidney", "value": "313 ± 47.5", "unit": "ng/g"}, {"measurement": "concentration at 4 h", "setting": "Tissue distribution; kidney", "value": "308 ± 41.5", "unit": "ng/g"}, {"measurement": "concentration at 12 h", "setting": "Tissue distribution; kidney", "value": "218 ± 15.9", "unit": "ng/g"}, {"measurement": "concentration at 15 min", "setting": "Tissue distribution; liver", "value": "149 ± 7.27", "unit": "ng/g"}, {"measurement": "concentration at 2 h", "setting": "Tissue distribution; liver", "value": "78.7 ± 10.6", "unit": "ng/g"}, {"measurement": "concentration at 4 h", "setting": "Tissue distribution; liver", "value": "48.7 ± 11.5", "unit": "ng/g"}, {"measurement": "concentration at 12 h", "setting": "Tissue distribution; liver", "value": "29.3 ± 11.5", "unit": "ng/g"}, {"measurement": "concentration at 15 min", "setting": "Tissue distribution; lung", "value": "133 ± 15", "unit": "ng/g"}, {"measurement": "concentration at 2 h", "setting": "Tissue distribution; lung", "value": "117 ± 4.61", "unit": "ng/g"}, {"measurement": "concentration at 4 h", "setting": "Tissue distribution; lung", "value": "106.8 ± 0.42", "unit": "ng/g"}, {"measurement": "concentration at 12 h", "setting": "Tissue distribution; lung", "value": "79 ± 30.9", "unit": "ng/g"}, {"measurement": "concentration at 15 min", "setting": "Tissue distribution; spleen", "value": "250 ± 38.3", "unit": "ng/g"}, {"measurement": "concentration at 2 h", "setting": "Tissue distribution; spleen", "value": "160 ± 2.24", "unit": "ng/g"}, {"measurement": "concentration at 4 h", "setting": "Tissue distribution; spleen", "value": "113 ± 21", "unit": "ng/g"}, {"measurement": "concentration at 12 h", "setting": "Tissue distribution; spleen", "value": "54 ± 8.47", "unit": "ng/g"}, {"measurement": "concentration at 15 min", "setting": "Tissue distribution; thymus", "value": "87.8 ± 23.5", "unit": "ng/g"}, {"measurement": "concentration at 2 h", "setting": "Tissue distribution; thymus", "value": "129 ± 50", "unit": "ng/g"}, {"measurement": "concentration at 4 h", "setting": "Tissue distribution; thymus", "value": "110 ± 41.8", "unit": "ng/g"}, {"measurement": "concentration at 12 h", "setting": "Tissue distribution; thymus", "value": "67.2 ± 4.15", "unit": "ng/g"}, {"measurement": "cells arrested in G2/M", "setting": "DU145 cells; DU145, 1 nM", "value": "16.5 ± 0.7", "unit": "%"}, {"measurement": "cells arrested in G2/M", "setting": "DU145 cells; DU145, 25 nM", "value": "65.5 ± 19.9", "unit": "%"}, {"measurement": "IC50", "setting": "Bel-7402", "value": "2.8 ± 0.5", "unit": "nM"}, {"measurement": "IC50", "setting": "H460", "value": "2.4 ± 1.3", "unit": "nM"}, {"measurement": "IC50", "setting": "PC-3", "value": "5.2 ± 1.7", "unit": "nM"}, {"measurement": "IC50", "setting": "MCF-7", "value": "5.3 ± 1.9", "unit": "nM"}, {"measurement": "IC50", "setting": "LN229", "value": "8.5 ± 2.3", "unit": "nM"}, {"measurement": "IC50", "setting": "DU145", "value": "6.1 ± 2.4", "unit": "nM"}]}]}
